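48-hour exposure; five concentrations; linearly interpolated endpoints. Here, GI50 denotes the concentration required for 50% inhibition of growth.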 The source made the active and inactive calls. No stated cut-off is given here; in the data, active = GI50 up to about 1.1 µM and inactive = higher.
Legend:
Experiment in all cases: inhibition of tumour cell growth, NCI panel, 48 h
786-0 = tested on: 786-0
A498 = tested on: A498
A549 = tested on: A549
ACHN = tested on: ACHN
CAKI-1 = tested on: CAKI-1
CCRF-CEM = tested on: CCRF-CEM
COLO 205 = tested on: COLO 205
DU-145 = tested on: DU-145
EKVX = tested on: EKVX
HCC 2998 = tested on: HCC 2998
HCT-116 = tested on: HCT-116
HCT-15 = tested on: HCT-15
HL-60 = tested on: HL-60
HOP-62 = tested on: HOP-62
HT-29 = tested on: HT-29
Hs-578T = tested on: Hs-578T
IGROV-1 = tested on: IGROV-1
K562 = tested on: K562
KM12 = tested on: KM12
LOX IMVI = tested on: LOX IMVI
M14 = tested on: M14
MCF7 = tested on: MCF7
MDA-MB-231 = tested on: MDA-MB-231
MDA-MB-435 = tested on: MDA-MB-435
MDA-N = tested on: MDA-N
MOLT-4 = tested on: MOLT-4
Malme-3M = tested on: Malme-3M
NCI-H226 = tested on: NCI-H226
NCI-H23 = tested on: NCI-H23
NCI-H460 = tested on: NCI-H460
NCI-H522 = tested on: NCI-H522
NCI/ADR-RES = tested on: NCI/ADR-RES
OVCAR-3 = tested on: OVCAR-3
OVCAR-4 = tested on: OVCAR-4
OVCAR-5 = tested on: OVCAR-5
OVCAR-8 = tested on: OVCAR-8
PC-3 = tested on: PC-3
RPMI-8226 = tested on: RPMI-8226
RXF 393 = tested on: RXF 393
SF-268 = tested on: SF-268
SF-295 = tested on: SF-295
SF-539 = tested on: SF-539
SK-MEL-28 = tested on: SK-MEL-28
SK-MEL-2 = tested on: SK-MEL-2
SK-MEL-5 = tested on: SK-MEL-5
SK-OV-3 = tested on: SK-OV-3
SN12C = tested on: SN12C
SNB-19 = tested on: SNB-19
SNB-75 = tested on: SNB-75
SW-620 = tested on: SW-620
T47D = tested on: T47D
TK-10 = tested on: TK-10
U-251 = tested on: U-251
UACC-257 = tested on: UACC-257
UACC-62 = tested on: UACC-62
UO-31 = tested on: UO-31

For `OC(c1nc2ccccc2s1)(C(F)(F)F)C(F)(F)F`, the GI50 (786-0) was > 100 µM (inactive), the GI50 (A498) was > 100 µM (inactive) and the GI50 (A549) was > 100 µM (inactive). The GI50 (ACHN) was > 100 µM (inactive), the GI50 (CAKI-1) was > 100 µM (inactive) and the GI50 (CCRF-CEM) was > 100 µM (inactive). For the same molecule, the GI50 (COLO 205) was > 100 µM (inactive), the GI50 (DU-145) was > 100 µM (inactive) and the GI50 (EKVX) was > 100 µM (inactive). The GI50 (HCC 2998) was > 100 µM (inactive), the GI50 (HCT-116) was > 100 µM (inactive) and the GI50 (HCT-15) was greater than 100 µM. The GI50 (HL-60) was > 100 µM (inactive), the GI50 (HOP-62) was > 100 µM (inactive) and the GI50 (HT-29) was > 100 µM (inactive). The GI50 (Hs-578T) was > 100 µM (inactive), the GI50 (IGROV-1) was > 100 µM (inactive) and the GI50 (K562) was > 100 µM (inactive). For the same molecule, the GI50 (KM12) was > 100 µM (inactive), the GI50 (LOX IMVI) was > 100 µM (inactive) and the GI50 (M14) was > 100 µM (inactive). The GI50 (MCF7) was > 100 µM (inactive), the GI50 (MDA-MB-231) was > 100 µM (inactive) and the GI50 (MDA-MB-435) was > 100 µM (inactive). For the same molecule, the GI50 (MDA-N) was > 100 µM (inactive), the GI50 (MOLT-4) was > 100 µM (inactive) and the GI50 (Malme-3M) was > 100 µM (inactive). The GI50 (NCI-H226) was > 100 µM (inactive), the GI50 (NCI-H23) was > 100 µM (inactive) and the GI50 (NCI-H460) was > 100 µM (inactive). The GI50 (NCI-H522) was > 100 µM (inactive), the GI50 (NCI/ADR-RES) was > 100 µM (inactive) and the GI50 (OVCAR-3) was > 100 µM (inactive). For the same molecule, the GI50 (OVCAR-4) was > 100 µM (inactive), the GI50 (OVCAR-5) was > 100 µM (inactive) and the GI50 (OVCAR-8) was > 100 µM (inactive). The GI50 (PC-3) was > 100 µM (inactive), the GI50 (RPMI-8226) was > 100 µM (inactive) and the GI50 (RXF 393) was > 100 µM (inactive). For the same molecule, the GI50 (SF-268) was > 100 µM (inactive), the GI50 (SF-295) was > 100 µM (inactive) and the GI50 (SF-539) was > 100 µM (inactive). The GI50 (SK-MEL-28) was > 100 µM (inactive), the GI50 (SK-MEL-2) was > 100 µM (inactive) and the GI50 (SK-MEL-5) was > 100 µM (inactive). The GI50 (SK-OV-3) was > 100 µM (inactive), the GI50 (SN12C) was > 100 µM (inactive) and the GI50 (SNB-19) was > 100 µM (inactive). For the same molecule, the GI50 (SNB-75) was > 100 µM (inactive), the GI50 (SW-620) was > 100 µM (inactive) and the GI50 (T47D) was > 100 µM (inactive). For the same molecule, the GI50 (TK-10) was > 100 µM (inactive), the GI50 (U-251) was > 100 µM (inactive) and the GI50 (UACC-257) was > 100 µM (inactive). The GI50 (UACC-62) was > 100 µM (inactive) and the GI50 (UO-31) was 87.1 µM (inactive).
